# Measurements published in US20240376099A1, “COMPOUNDS AND COMPOSITIONS AS INHIBITORS OF ENDOSOMAL TOLL-LIKE RECEPTORS” (Novartis AG, priority 2016, published 2024).
# Molecular target: T1, TLR9 (Homo sapiens, UniProt Q9NR96)
# T1 construct: Fresh blood was collected from normal human donors; endogenous in cells; host or cells: human PBMCs from fresh donor blood
# T1 sequence (Q9NR96 26-1032): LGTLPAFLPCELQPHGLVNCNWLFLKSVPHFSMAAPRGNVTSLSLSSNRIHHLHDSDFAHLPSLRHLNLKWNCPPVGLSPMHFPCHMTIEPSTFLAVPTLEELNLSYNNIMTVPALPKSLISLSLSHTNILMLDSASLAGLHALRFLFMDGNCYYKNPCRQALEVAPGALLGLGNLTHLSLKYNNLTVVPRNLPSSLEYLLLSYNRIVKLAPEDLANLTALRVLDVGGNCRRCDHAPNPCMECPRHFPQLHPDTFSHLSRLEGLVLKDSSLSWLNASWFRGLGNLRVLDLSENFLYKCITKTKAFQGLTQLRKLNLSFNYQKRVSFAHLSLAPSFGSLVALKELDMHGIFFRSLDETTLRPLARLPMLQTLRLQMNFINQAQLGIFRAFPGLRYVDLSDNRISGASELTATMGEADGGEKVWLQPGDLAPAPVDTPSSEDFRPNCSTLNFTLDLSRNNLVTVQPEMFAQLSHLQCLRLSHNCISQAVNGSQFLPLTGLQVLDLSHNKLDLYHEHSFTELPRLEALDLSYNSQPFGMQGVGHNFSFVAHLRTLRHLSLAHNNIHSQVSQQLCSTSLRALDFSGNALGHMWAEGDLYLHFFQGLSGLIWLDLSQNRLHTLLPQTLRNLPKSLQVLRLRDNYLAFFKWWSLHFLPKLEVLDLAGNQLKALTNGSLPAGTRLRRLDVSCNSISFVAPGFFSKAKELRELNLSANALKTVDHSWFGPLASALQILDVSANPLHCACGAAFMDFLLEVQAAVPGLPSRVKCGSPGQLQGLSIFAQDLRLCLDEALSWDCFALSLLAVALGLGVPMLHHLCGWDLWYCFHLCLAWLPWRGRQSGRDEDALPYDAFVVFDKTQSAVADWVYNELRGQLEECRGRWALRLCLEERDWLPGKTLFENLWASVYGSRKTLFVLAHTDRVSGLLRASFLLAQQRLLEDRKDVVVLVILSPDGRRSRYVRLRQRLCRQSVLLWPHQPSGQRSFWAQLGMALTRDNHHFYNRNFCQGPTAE
# Assay: huPBMC TLR9 Antagonist IFNα Assay
# Type: cell-based
# Details: human PBMCs stimulated with ODN2216 0.3 μM, 14-16 hrs; IFNα2b AlphaLISA read-out
# Summary of the method: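 Human PBMCs from fresh donor blood (150,000 cells/well) stimulated 14–16 h at 37 °C with DOTAP-complexed ssRNA40 (final 1 μg/ml for TLR8, 10 μg/mL for TLR7) or ODN2216 (final 0.3 μM, TLR9), 0.25% DMSO, ten-point 1/3 compound dilutions. Supernatant IL-6 read by HTRF (TLR8); IFNα by IFNα2b AlphaLISA (TLR7/TLR9).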
row,IC50 [µM],SMILES
1,1.52,"Cc1cc(N2CCc3c(c(C)nn3CC34CCC(N)(CC3)CC4)C2)c2cnn(C)c2n1 [Compound No. 1, 4-((5-(1,6-dimethyl-1H-pyrazolo[3,4-b]pyridin-4-yl)-3-methyl-4,5,6,7-tetrahydro-1H-pyrazolo[4,3-c]pyridin-1-yl)methyl)bicyclo[2.2.2]octan-1-amine]"
2,3.13,"Cc1cc(N2CCc3c(c(C)nn3CC34CCC(N)(CC3)CC4)C2)c2cn[nH]c2n1 [Compound No. 2, 4-((3-methyl-5-(6-methyl-1H-pyrazolo[3,4-b]pyridin-4-yl)-4,5,6,7-tetrahydro-1H-pyrazolo[4,3-c]pyridin-1-yl)methyl)bicyclo[2.2.2]octan-1-amine]"
3,3.95,"Cc1cc(N2CCc3c(c(C)nn3CC34CCC(N(C)C(=O)OC(C)(C)C)(CC3)CC4)C2)c2cnn(C)c2n1 [Compound No. 49, tert-butyl (4-((5-(1,6-dimethyl-1H-pyrazolo[3,4-b]pyridin-4-yl)-3-methyl-4,5,6,7-tetrahydro-1H-pyrazolo[4,3-c]pyridin-1-yl)methyl)bicyclo[2.2.2]octan-1-yl)(methyl)carbamate]"
4,0.376,"CNC12CCC(Cn3nc(C)c4c3CCN(c3cc(C)nc5c3cnn5C)C4)(CC1)CC2 [Compound No. 50, 4-((5-(1,6-dimethyl-1H-pyrazolo[3,4-b]pyridin-4-yl)-3-methyl-4,5,6,7-tetrahydro-1H-pyrazolo[4,3-c]pyridin-1-yl)methyl)-N-methylbicyclo[2.2.2]octan-1-amine]"
5,7.55,"Cc1cc(N2CCc3c(c(C)nn3CC34CCC(NC(=O)OC5(C)CC5)(CC3)CC4)C2)c2cnn(C)c2n1 [Compound No. 51, 1-methylcyclopropyl (4-((5-(1,6-dimethyl-1H-pyrazolo[3,4-b]pyridin-4-yl)-3-methyl-4,5,6,7-tetrahydro-1H-pyrazolo[4,3-c]pyridin-1-yl)methyl)bicyclo[2.2.2]octan-1-yl)carbamate]"
6,1.73,"COc1ccc(Cn2ncc3c(N4CCc5c(c(C)nn5CC56CCC(N)(CC5)CC6)C4)cc(C)nc32)cc1 [Compound No. 53, 4-((5-(1-(4-methoxybenzyl)-6-methyl-1H-pyrazolo[3,4-b]pyridin-4-yl)-3-methyl-4,5,6,7-tetrahydro-1H-pyrazolo[4,3-c]pyridin-1-yl)methyl)bicyclo[2.2.2]octan-1-amine]"
7,0.639,"Cc1cc(N2CCc3c(c(C)nn3CC34CCC(N5CCCC5)(CC3)CC4)C2)c2cnn(C)c2n1 [Compound No. 58, 5-(1,6-dimethyl-1H-pyrazolo[3,4-b]pyridin-4-yl)-3-methyl-1-((4-(pyrrolidin-1-yl)bicyclo[2.2.2]octan-1-yl)methyl)-4,5,6,7-tetrahydro-1H-pyrazolo[4,3-c]pyridine]"
8,2.17,"Cc1cc(N2CCc3c(c(C)nn3CC34CCC(N5CCOCC5)(CC3)CC4)C2)c2cnn(C)c2n1 [Compound No. 59, 4-(4-((5-(1,6-dimethyl-1H-pyrazolo[3,4-b]pyridin-4-yl)-3-methyl-4,5,6,7-tetrahydro-1H-pyrazolo[4,3-c]pyridin-1-yl)methyl)bicyclo[2.2.2]octan-1-yl)morpholine]"
9,0.442,"COCCNC12CCC(Cn3nc(C)c4c3CCN(c3cc(C)nc5c3cnn5C)C4)(CC1)CC2 [Compound No. 69, 4-((5-(1,6-dimethyl-1H-pyrazolo[3,4-b]pyridin-4-yl)-3-methyl-4,5,6,7-tetrahydro-1H-pyrazolo[4,3-c]pyridin-1-yl)methyl)-N-(2-methoxyethyl)bicyclo[2.2.2]octan-1-amine]"
10,0.179,"Cc1cc(N2CCc3c(c(C)nn3CC34CCC(N(C)C5COC5)(CC3)CC4)C2)c2cnn(C)c2n1 [Compound No. 77, N-(4-((5-(1,6-dimethyl-1H-pyrazolo[3,4-b]pyridin-4-yl)-3-methyl-4,5,6,7-tetrahydro-1H-pyrazolo[4,3-c]pyridin-1-yl)methyl)bicyclo[2.2.2]octan-1-yl)-N-methyloxetan-3-amine]"
11,1.84,"Cc1nn(CC23CCC(N)(CC2)CC3)c2c1CN(c1ccnc(-c3ccc(C#N)cc3)c1)CC2 [Compound No. 84, 4-(4-(1-((4-aminobicyclo[2.2.2]octan-1-yl)methyl)-3-methyl-6,7-dihydro-1H-pyrazolo[4,3-c]pyridin-5(4H)-yl)pyridin-2-yl)benzonitrile]"
12,> 10,"Cc1cc(N2CCc3c(c(C)nn3CC34CCC(O)(CC3)CC4)C2)c2cnn(C)c2n1 [compound 46, 4-((5-(1,6-dimethyl-1H-pyrazolo[3,4-b]pyridin-4-yl)-3-methyl-4,5,6,7-tetrahydro-1H-pyrazolo[4,3-c]pyridin-1-yl)methyl)bicyclo[2.2.2]octan-1-ol]"
13,4.86,"Cc1cc(N2CCc3nn(CC45CC(N)(C4)C5)c(C)c3C2)c2cnn(C)c2n1 [compound 52, 3-((5-(1,6-dimethyl-1H-pyrazolo[3,4-b]pyridin-4-yl)-3-methyl-4,5,6,7-tetrahydro-2H-pyrazolo[4,3-c]pyridin-2-yl)methyl)bicyclo[1.1.1]pentan-1-amine]"
14,0.489,"Cc1cc(N2CCc3c(c(C)nn3CC34CCC(NC5CCC5)(CC3)CC4)C2)c2cnn(C)c2n1 [compound 54, N-cyclobutyl-4-((5-(1,6-dimethyl-1H-pyrazolo[3,4-b]pyridin-4-yl)-3-methyl-4,5,6,7-tetrahydro-1H-pyrazolo[4,3-c]pyridin-1-yl)methyl)bicyclo[2.2.2]octan-1-amine]"
15,1.05,"Cc1cc(N2CCc3c(c(C)nn3CC34CCC(NC(C)C)(CC3)CC4)C2)c2cnn(C)c2n1 [compound 55, 4-((5-(1,6-dimethyl-1H-pyrazolo[3,4-b]pyridin-4-yl)-3-methyl-4,5,6,7-tetrahydro-1H-pyrazolo[4,3-c]pyridin-1-yl)methyl)-N-isopropylbicyclo[2.2.]octan-1-amine]"
16,0.68,"Cc1cc(N2CCc3c(c(C)nn3CC34CCC(NC(C)CO)(CC3)CC4)C2)c2cnn(C)c2n1 (stereo not drawn) [compound 56, 2-((4-((5-(1,6-dimethyl-1H-pyrazolo[3,4-b]pyridin-4-yl)-3-methyl-4,5,6,7-tetrahydro-1H-pyrazolo[4,3-c]pyridin-1-yl)methyl)bicyclo[2.2.2]octan-1-yl)amino)propan-1-ol]"
17,0.497,"CCNC12CCC(Cn3nc(C)c4c3CCN(c3cc(C)nc5c3cnn5C)C4)(CC1)CC2 [compound 57, 4-((5-(1,6-dimethyl-1H-pyrazolo[3,4-b]pyridin-4-yl)-3-methyl-4,5,6,7-tetrahydro-1H-pyrazolo[4,3-c]pyridin-1-yl)methyl)-N-ethylbicyclo[2.2.]octan-1-amine]"
18,0.443,"Cc1cc(N2CCc3c(c(C)nn3CC34CCC(N5CCC5)(CC3)CC4)C2)c2cnn(C)c2n1 [compound 64, 1-((4-(azetidin-1-yl)bicyclo[2.2.2]octan-1-yl)methyl)-5-(1,6-dimethyl-1H-pyrazolo[3,4-b]pyridin-4-yl)-3-methyl-4,5,6,7-tetrahydro-1H-pyrazolo[4,3-c]pyridine]"
19,0.488,"CCOCCNC12CCC(Cn3nc(C)c4c3CCN(c3cc(C)nc5c3cnn5C)C4)(CC1)CC2 [compound 71, 4-((5-(1,6-dimethyl-1H-pyrazolo[3,4-b]pyridin-4-yl)-3-methyl-4,5,6,7-tetrahydro-1H-pyrazolo[4,3-c]pyridin-1-yl)methyl)-N-(2-ethoxyethyl)bicyclo[2.2.2]octan-1-amine]"
20,0.815,"CCOCCN(CCOCC)C12CCC(Cn3nc(C)c4c3CCN(c3cc(C)nc5c3cnn5C)C4)(CC1)CC2 [compound 72, 4-((5-(1,6-dimethyl-1H-pyrazolo[3,4-b]pyridin-4-yl)-3-methyl-4,5,6,7-tetrahydro-1H-pyrazolo[4,3-c]pyridin-1-yl)methyl)-N,N-bis(2-ethoxyethyl)bicyclo[2.2.2]octan-1-amine]"
21,1.54,"Cc1cc(N2CCc3c(c(C)nn3CC34CCC(N5C[C@@H](O)[C@@H](O)C5)(CC3)CC4)C2)c2cnn(C)c2n1 [compound 74, (3S,4R)-1-(4-((5-(1,6-dimethyl-1H-pyrazolo[3,4-b]pyridin-4-yl)-3-methyl-4,5,6,7-tetrahydro-1H-pyrazolo[4,3-c]pyridin-1-yl)methyl)bicyclo[2.2.2]octan-1-yl)pyrrolidine-3,4-diol]"
